Laboratory results as given in patent publication US8420657B2 (Novartis AG, priority 2008, dated 2013).

Molecular target: T1, GST-JAK2(808-1132) (Homo sapiens, UniProt O60674)
T1 construct: GST-JAK2(808-1132); purchased Invitrogen (Carlsbad, USA) #4288
Assay: JAK2 kinase assay (Caliper mobility shift, LabChip 3000)
Assay type: biochemical
Text: All four kinases of the JAK/TYK-kinase family were used as purified recombinant GST-fusion proteins, containing the active kinase domains. GST-JAK1 (866-1154), GST-JAK3(811-1124), and GST-TYK2(888-1187) were expressed and purified by affinity chromatography at the EPK biology unit. GST-JAK2(808-1132) was purchased from Invitrogen (Carlsbad, USA, #4288).
The kinase assays were based on the Caliper mobility shift assay using the LabChip 3000 systems. This technology is similar to capillary electrophoresis and uses charge driven separation of substrate and product in a microfluidic chip.
All kinase reactions were performed in 384 well microtiter plates in a total reaction volume of 18 μl. The assay plates were prepared with 0.1 μl per well of test compound in the appropriate test concentration, as described under the section “preparation of compound dilutions”. The reactions were started by combining 9 μl of substrate mix (consisting of peptide and ATP) with 9 μl of kinase dilution. The reactions were incubated for 60 minutes at 30° C. and stopped by adding 70 μl of stop buffer (100 mM Hepes, 5% DMSO, 0.1% Coating reagent, 10 mM EDTA, 0.015% Brij 35).
Fluorescently labeled synthetic peptides were used as substrates in all reactions. A peptide derived from the sequence of IRS-1(IRS-1 peptide, SEQ ID NO: 1 FITC-Ahx-KKSRGDYMTMQIG-NH2) was used for JAK1 and TYK2 and a peptide named JAK3tide SEQ ID NO: 2 (FITC-GGEEEEYFELVKKKK-NH2) for JAK2 and JAK3. Specific assay conditions are described in Table1:
The terminated reactions were transferred to the Caliper LabChip 3000 reader and the turnover of each reaction was measured by determining the substrate/product ratio.
Test compounds were dissolved in DMSO (10 mM) and transferred into 1.4 mL flat bottom or V-shaped Matrix tubes carrying a unique 2D matrix chip by individual compound hubs. The numbers of these chips were distinctively linked to the individual compound identification numbers. The stock solutions were stored at −20° C. if not used immediately. For the test procedure the vials were defrosted and identified by a scanner whereby a working sheet was generated that guided the subsequent working steps. Compound dilutions were made in 96 well plates. This format enabled the assay of maximally 40 individual test compounds at 8 concentrations (single points) including 4 reference compounds. The dilution protocol included the production of pre-dilution plates, master plates and assay plates:
Pre-dilution plates: 96 polypropylene well plates were used as pre-dilution plates. A total of 4 pre-dilution plates were prepared including 10 test compounds each on the plate positions A1-A10, one standard compound at A11 and one DMSO control at A12. All dilution steps were done on a HamiltonSTAR robot.
Master plates: 100 μL of individual compound dilutions including standard compound and controls of the 4 “pre-dilution plates” were transferred into a 384 “master plate” including the following concentrations 1,820, […], 182, 54.6, 18.2, 5.46, 1.82 and 0.546 μM, respectively in 90% of DMSO.
Assay plates: Identical assay plates were then prepared by pipetting 100 nL each of compound dilutions of the master plates into 384-well “assay plates”. In the following the compounds were mixed with 9 μL of assays components plus 9 μL enzyme corresponding to a 1:181 dilution steps enabling the final concentration of 10, 3.0, 1.0, 0.3, 0.1, 0.03, 0.01 and 0.003 μM, respectively. The preparation of the master plates were handled by the Matrix PlateMate Plus robot and replication of assay plates by the HummingBird robot.

T1 sequence (O60674 808-1132): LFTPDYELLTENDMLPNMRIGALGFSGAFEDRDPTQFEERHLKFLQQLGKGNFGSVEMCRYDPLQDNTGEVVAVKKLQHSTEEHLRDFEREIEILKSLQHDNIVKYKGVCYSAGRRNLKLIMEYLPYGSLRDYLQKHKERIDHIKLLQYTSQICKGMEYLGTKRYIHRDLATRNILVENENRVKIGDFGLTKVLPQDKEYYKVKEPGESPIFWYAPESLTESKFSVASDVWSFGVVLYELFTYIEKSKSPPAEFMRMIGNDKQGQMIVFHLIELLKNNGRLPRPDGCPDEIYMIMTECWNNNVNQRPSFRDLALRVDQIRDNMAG

Row | SMILES | IC50
1 | CS(=O)(=O)c1ccc(-n2ccc3cnc(Nc4cccc(OCCN5CCOCC5)c4)nc32)cc1 [Example 35, [7-(4-Methanesulfonyl-phenyl)-7H-pyrrolo[2,3-d]pyrimidin-2-yl]-[3-(2-morpholin-4-yl-ethoxy)-phenyl]-amine] | 4.9 nM
2 | CS(=O)(=O)c1ccc(-n2ccc3cnc(Nc4ccc(N5CCNCC5)cc4)nc32)cc1 [Example 37, [7-(4-Methanesulfonyl-phenyl)-7H-pyrrolo[2,3-d]pyrimidin-2-yl]-(4-piperazin-1-yl-phenyl)-amine] | < 3 nM
3 | CN1CCN(Cc2ccc(Nc3ncc4ccn(-c5ccc(S(C)(=O)=O)cc5)c4n3)cc2)CC1 [Example 38, [7-(4-Methanesulfonyl-phenyl)-7H-pyrrolo[2,3-d]pyrimidin-2-yl]-[4-(4-methyl-piperazin-1-ylmethyl)-phenyl]-amine] | 4.5 nM
4 | CC(C)(C)OC(=O)N1CCN(Cc2ccc(Nc3ncc4ccn(-c5ccc(S(C)(=O)=O)cc5)c4n3)cc2)CC1 [Example 45, 4-{4-[7-(4-Methanesulfonyl-phenyl)-7H-pyrrolo[2,3-d]pyrimidin-2-ylamino]-benzyl}-piperazine-1-carboxylic acid tert-butyl ester] | 6.1 nM
5 | CC(C)(C)OC(=O)N1CCCC1c1ccc(Nc2ncc3ccn(-c4ccc(S(C)(=O)=O)cc4)c3n2)cc1 (stereo not shown) [Example 46, 2-{4-[7-(4-Methanesulfonyl-phenyl)-7H-pyrrolo[2,3-d]pyrimidin-2-ylamino]-phenyl}-pyrrolidine-1-carboxylic acid tert-butyl ester] | 38 nM
6 | CS(=O)(=O)c1ccc(-n2ccc3cnc(Nc4ccc(C(=O)NCCO)cc4)nc32)cc1 [Example 51, N-(2-Hydroxy-ethyl)-4-[7-(4-methanesulfonyl-phenyl)-7H-pyrrolo[2,3-d]pyrimidin-2-ylamino]-benzamide] | < 3 nM
7 | CS(=O)(=O)c1ccc(-n2ccc3cnc(Nc4ccc(CN5CCNCC5)cc4)nc32)cc1 [Example 52, [7-(4-Methanesulfonyl-phenyl)-7H-pyrrolo[2,3-d]pyrimidin-2-yl]-(4-piperazin-1-ylmethyl-phenyl)-amine] | < 3 nM
8 | CS(=O)(=O)c1ccc(-n2ccc3cnc(Nc4ccc(F)cc4)nc32)cc1 [Example 55, (4-Fluoro-phenyl)-[7-(4-methanesulfonyl-phenyl)-7H-pyrrolo[2,3-d]pyrimidin-2-yl]-amine] | 20 nM
9 | CCN1CCCC1CNC(=O)c1ccc(-n2ccc3cnc(Nc4ccc(F)cc4)nc32)cc1 (stereo not shown) [Example 63, N-(1-Ethyl-pyrrolidin-2-ylmethyl)-4-[2-(4-fluoro-phenylamino)-pyrrolo[2,3-d]pyrimidin-7-yl]-benzamide] | 73 nM
10 | CC(C)(C)OC(=O)N1CCN(C(=O)c2ccc(Nc3ncc4ccn(-c5ccc(S(C)(=O)=O)cc5)c4n3)cc2)CC1 [Example 69, 4-{4-[7-(4-Methanesulfonyl-phenyl)-7H-pyrrolo[2,3-d]pyrimidin-2-ylamino]-benzoyl}-piperazine-1-carboxylic acid tert-butyl ester] | 4.8 nM
11 | Fc1cc(-n2ccc3cnc(Nc4cccc(CN5CCOCC5)c4)nc32)cc(F)c1CN1CCOCC1 [Example 198, [7-(3,5-Difluoro-4-morpholin-4-ylmethyl-phenyl)-7H-pyrrolo[2,3-d]pyrimidin-2-yl]-(3-morpholin-4-ylmethyl-phenyl)-amine] | < 3 nM
12 | CN1CCN(Cc2ccc(Nc3ncc4ccn(-c5cc(F)c(CN6CCOCC6)c(F)c5)c4n3)cc2C(F)(F)F)CC1 [Example 200, [7-(3,5-Difluoro-4-morpholin-4-ylmethyl-phenyl)-7H-pyrrolo[2,3-d]pyrimidin-2-yl]-[4-(4-methyl-piperazin-1-ylmethyl)-3-trifluoromethyl-phenyl]-amine] | 3.7 nM
13 | CN1CCN(Cc2ccc(Nc3ncc4ccn(-c5cc(F)c(C(=O)N6CCOCC6)c(F)c5)c4n3)cc2C(F)(F)F)CC1 [Example 204, (2,6-Difluoro-4-{2-[4-(4-methyl-piperazin-1-ylmethyl)-3-trifluoromethyl-phenylamino]-pyrrolo[2,3-d]pyrimidin-7-yl}-phenyl)-morpholin-4-yl-methanone] | < 3 nM
14 | CN1CCN(Cc2ccc(Nc3ncc4ccn(-c5cc(F)c(C(=O)N6CCOCC6)c(F)c5)c4n3)cc2)CC1 [Example 205, (2,6-Difluoro-4-{2-[4-(4-methyl-piperazin-1-ylmethyl)-phenylamino]-pyrrolo[2,3-d]pyrimidin-7-yl}-phenyl)-morpholin-4-yl-methanone] | 5 nM
15 | O=C(c1c(F)cc(-n2ccc3cnc(Nc4ccc(CN5CCOCC5)cc4)nc32)cc1F)N1CCOCC1 [Example 206, {2,6-Difluoro-4-[2-(4-morpholin-4-ylmethyl-phenylamino)-pyrrolo[2,3-d]pyrimidin-7-yl]-phenyl}-morpholin-4-yl-methanone] | < 3 nM
16 | CN1CCN(c2cccc(Nc3ncc4ccn(-c5cc(F)c(C(=O)N6CCOCC6)c(F)c5)c4n3)c2)CC1 [Example 207, (2,6-Difluoro-4-{2-[3-(4-methyl-piperazin-1-yl)-phenylamino]-pyrrolo[2,3-d]pyrimidin-7-yl}-phenyl)-morpholin-4-yl-methanone] | < 3 nM
17 | Fc1cc(-n2ccc3cnc(Nc4ccccn4)nc32)cc(F)c1CN1CCOCC1 [Example 209, [7-(3,5-Difluoro-4-morpholin-4-ylmethyl-phenyl)-7H-pyrrolo[2,3-d]pyrimidin-2-yl]-pyridin-2-yl-amine] | 125 nM
18 | Fc1cc(-n2ccc3cnc(Nc4ccncc4)nc32)cc(F)c1CN1CCOCC1 [Example 211, [7-(3,5-Difluoro-4-morpholin-4-ylmethyl-phenyl)-7H-pyrrolo[2,3-d]pyrimidin-2-yl]-pyridin-4-yl-amine] | 5.9 nM
19 | Cc1ccc(Nc2ncc3ccn(-c4ccc(C(=O)N5CCOCC5)c(F)c4)c3n2)nc1C [Example 222, {4-[2-(5,6-Dimethyl-pyridin-2-ylamino)-pyrrolo[2,3-d]pyrimidin-7-yl]-2-fluoro-phenyl}-morpholin-4-yl-methanone] | 290 nM
20 | O=C(c1ccc(-n2ccc3cnc(Nc4ccc(C(F)(F)F)nc4)nc32)cc1F)N1CCOCC1 [Example 227, {2-Fluoro-4-[2-(6-trifluoromethyl-pyridin-3-ylamino)-pyrrolo[2,3-d]pyrimidin-7-yl]-phenyl}-morpholin-4-yl-methanone] | 41.5 nM
21 | N#Cc1ccc(Nc2ncc3ccn(-c4ccc(C(=O)N5CCOCC5)c(F)c4)c3n2)cn1 [Example 228, 5-{7-[3-Fluoro-4-(morpholine-4-carbonyl)-phenyl]-7H-pyrrolo[2,3-d]pyrimidin-2-ylamino}-pyridine-2-carbonitrile] | 56.5 nM
22 | O=C(c1ccc(-n2ccc3cnc(Nc4ccc(C(F)(F)F)nc4)nc32)cc1)N1CCOCC1 [Example 236, Morpholin-4-yl-{4-[2-(6-trifluoromethyl-pyridin-3-ylamino)-pyrrolo[2,3-d]pyrimidin-7-yl]-phenyl}-methanone] | 46 nM
23 | C[C@@H]1CN(Cc2ccc(Nc3ncc4ccn(-c5cc(F)c(CN6CCOCC6)c(F)c5)c4n3)cc2)C[C@H](C)N1 [Example 254] | < 3 nM
24 | CS(=O)(=O)c1ccc(-n2ccc3cnc(Nc4ccnc(N5CCNC6(CC6)C5)c4)nc32)cc1 [Example 275, [2-(4,7-Diaza-spiro[2.5]oct-7-yl)-pyridin-4-yl]-[7-(4-methanesulfonyl-phenyl)-7H-pyrrolo[2,3-d]pyrimidin-2-yl]-amine] | 7 nM
25 | CN1CCN(c2ncc(Nc3ncc4ccn(-c5ccc(S(C)(=O)=O)cc5)c4n3)cn2)CC1 [Example 276, [7-(4-Methanesulfonyl-phenyl)-7H-pyrrolo[2,3-d]pyrimidin-2-yl]-[2-(4-methyl-piperazin-1-yl)-pyrimidin-5-yl]-amine] | 120 nM
